Patent US10028971B2, “Compositions and methods for treating psychiatric disorders” (GOSFORTH CENTRE (HOLDINGS) PTY LTD., priority 2008, dated 2018)
Read-outs that look alike come from different tables or passages of the source.

Columns and labels:
[1] = test system: individuals with MCI or dementia; conditions: cited from earlier work; for effect in mild cognitive impairment (reports): individuals with MCI
[2] = test system: Parkinson's disease patient; test: Parkinson's disease clinical example with infrared eye tracking; assay type: in vivo, human; conditions: 12.5 mg phenytoin
Excerpt: Clinical example person with a ten-year history of Parkinson's disease. Moderate to severe motor symptoms with muscle rigidity, resting tremor, brady-[…] slowing of speech. No evidence of dementia or depression. […] An enhanced initiation of movement. Also described an improved perception of efficiency in thought and action. No evidence of loss of efficacy of medication. Using infrared eye tracking technology it was noted that the fixations and […] movements were enhanced after treatment. Measurements were undertaken both whilst silent and speaking with and without eye contact with the investigator. Based on these investigations in Parkinson's disease and also in mild cognitive impairment and dementia we consider that condition is described as Parkinson plus diseases, including multiple system atrophy (MSA), progressive supranuclear palsy (PSP), corticobasal degeneration (CBD), and dementia with Lewy bodies (DLB)s may also benefit from the addition of a low dose AED with and without a psychostimulant.

[3] = test system: individuals with developmental dyspraxia / poor coordination; test: Treatment of developmental dyspraxia, clinical observation; assay type: in vivo, human; conditions: person, ADHD
Excerpt: Many of the individuals treated at this clinic, with a diagnosis of ADHD and/or pervasive development disorder such Asperger's Syndrome or autism also present with symptoms consistent with a diagnosis of a developmental coordination disorder. They are often described as ‘unco’ (unco-ordinated) by their peers and experience victimization, poor self-esteem and frustration as a consequence of their poor coordination. […] Individuals have described a sense of having more time to coordinate movements and to understand and integrate their own activity appropriately within a team sport such as soccer, which has previously eluded them. Individuals have felt frustration at being able to practise repeatedly an activity or skill only to be unable to put it into practice when required, within the play of a match. It is proposed that individuals were previously unable to process and plan their own coordination but remain aware of the general activity in which they were participating.

[4] = test system: individuals with MCI or dementia; test: Mild cognitive impairment and dementia, clinical cases (Developmental Eye Movement test, Alzheimer's Quick Test); assay type: in vivo, human; conditions: person
Excerpt: A married person with a history of good cognitive functioning until last 4-5 yrs when noted by both their spouse and themself to becoming increasingly socially withdrawn primarily because of the difficulty in listening without distraction during social interaction, no known childhood or adult history of prior attentional or impulsive disorders. It has been clinically observed by the inventor that individuals treated with low dose antiepileptic were enhanced in their ability to discriminate irrelevant from the relevant sound was enhanced. […] On ceasing the medication there was an initial improvement again over the preceding 3 to 7 days followed by a loss of the therapeutic effects and returned to their pre-medication function. On the ressumption of the 12.5 mg phenytoin there was a return of the improved function. On this second occasion they were more aware of the benefits and also the gradual return of the detrimental clinic effects. During the clinical assessment it was noted that they had more flexibility in their conversation and more natural use of non-verbal cues, there was also enhancement of their egocentric gaze. […] These benefits were also noted by their spouse. […] Again these medications were ceased resulting in a loss of associated benefits. With each trial of medication they became more apparent to the patient and their spouse of the benefits of the therapy. They attempted whilst not taking the medication to communicate and follow the conversation in a way that they had been able to whilst on treatment. They found when attempting to do so they became mentally exhausted and unable to sustain the effort required for the interaction. The improvements noted clinically and also recorded using the Developmental Eye Movement test and a measure of parietal function the Alzheimer's Quick Test. Married person diagnosed with fronto-temporal dementia. they had been assessed by neuropsychologist, and geriatrician and psychiatrist to confirm this diagnosis. […] They then relied on others to make decisions for […]. They had gradually become socially disengaged finding such interactions distressing and demanding. […] Despite ongoing difficulties of word finding they were able to socially interact more spontaneously than they had done for many years. And have confidence in areas of conversation that they previously would have avoided. […] On two occasions the medication was withdrawn and then reintroduced, due to the experimental nature of treatment and concern that there might be a significant placebo effect. […] Following the subsequent reduction there was a return of the improvement previously noted.

[5] = test system: mood stabilisation or epileptic symptoms or events; conditions: cited from earlier work; for Minimum Dose/day effective for mood stabilisation or treatment of epileptic symptoms or events: usual minimum anti-convulsant dose per day
adults with ADHD = conditions: for group outcome of combination therapy: adults with ADHD
Protocol: In the clinical setting a number of adults with ADHD experienced a combination therapy of stimulant medication (dexamphetamine) in combination with sodium valproate (VPA). The initial dosages used were from 15 to 70 mg/day of dexamphetamine and from 100 to 700 mg/day of VPA (Epilim) (=approximately 2 to 10 mg/kg/day).
The determination of the dose for the dexamphetamine was undertaken in a clinical sensitive open label manner. The dose was titrated upwards dependent on the clinical response and the freedom from side-effects. The dose range was between 15 and 70 mg a day. The frequency of the dosing also varied dependent upon the clinical response. The usual dose interval was between two to four hours. This dosing adjustment took place prior to the commencement of the sodium valproate. The sodium valproate medication was initiated once a day at 50 mg tablet or elixir and titrated upwards dependent on response, but not more than one increase every three days. The dose was given as a once or twice a day regime. During the titration phase, if clinically possible, no other adjustments to the pharmacotherapy were undertaken.

[6] = test system: adherence to medication regime; conditions: person, anxiety and depression, no ADHD; 25 mg phenytoin
Excerpt: As a result, taking medication becomes an automatic activity which doesn't require a high level of attention and motivation.
The individual experiences an improvement in the ability to efficiently and effectively attend to a task in hand, without also needing to expend extra cognitive effort to remember which medication to take and at what times.

[7] = test system: patients with an eating disorder and ADHD; test: Treatment of eating disorders, clinical observation; conditions: person
Excerpt: The use of sodium valproate at low dose levels can then be titrated to a level that does effectively control these thoughts. This may or may not be at the therapeutic dose used in the treatment of bipolar disorder.

[8] = test system: individual not meeting the full criteria for ADHD; test: Subthreshold ADHD, clinical case (Example 21); assay type: in vivo, human; conditions: person; topiramate 12.5 mg daily added to dexamphetamine 2.5 mg daily
[9] = test system: patients with substance addiction; test: Treatment of addictions, clinical observation; assay type: in vivo, human; conditions: person; dexamphetamine alone over 6 months
Excerpt: Addiction to amphetamines poses a number of unique challenges.

[10] = test system: patients with substance addiction; conditions: psychostimulants alone; cited from earlier work
[11] = in vivo; cited from earlier work
[12] = test system: patients with an eating disorder and ADHD; conditions: double-blind studies; effects thought only short-lived; cited from earlier work
[13] = fronto-temporal dementia, 25 mg phenytoin

## COc1cc2c(cc1OC)C(=O)C(CC1CCN(Cc3ccccc3)CC1)C2 (stereo not shown) [Donepezil]
[1]; human, in vivo
  side effects in MCI (reports): significant side effects
[1]
  effect in mild cognitive impairment (reports): only minor, short-term benefits

## O=C1NC(=O)C(c2ccccc2)(c2ccccc2)N1 [Phenytoin]
[2]; infrared eye tracking
  fixations and saccadic eye movements after treatment: enhanced
[2]; person, ten-year Parkinson's disease
  clinical outcome (case): improved verbal fluency, enhanced and less effortful social connection and eye contact
[2]; person
  time to noted improvement: 2 to 3 days
[3]; phenytoin 25 mg added to dexamphetamine 25 mg, atomexetine 60 mg, sodium valproate 150 mg
  clinical outcome (case): improvement in coordination
[4]; [13]
  clinical outcome (case): remarkable improvement in their cognitive functioning
  rapid automatic naming and Alzheimer's Quick Test (AQT): significant improvement in their functioning
[4]; social withdrawal, phenytoin 12.5 mg daily
  clinical outcome (case): able to socially interact in a more meaningful way
[4]; phenytoin 10 mg added to low dose sodium valproate
  clinical outcome (case): more robust improvement on either medication alone
[4]; phenytoin 50 mg for two weeks
  clinical outcome (case): loss of the therapeutic benefit and general impairment
[4]; phenytoin increased to 25 mg, over 6 to 8 weeks
  clinical outcome (case): loss of the benefits
[5]
  Minimum Dose/day effective for mood stabilisation or treatment of epileptic symptoms or events: 200 mg
Adults with ADHD; 50 mg phenytoin dose with dexamphetamine, many clinical situations
  course of benefit on continued dosing: loss of benefit of the therapy over the proceeding weeks and months
Adults with ADHD; adult female, phenytoin 50 mg added to sodium valproate 100 mg and methylphenidate
  clinical outcome (case): Pervasive and robust psychosocial improvement
Adults with ADHD; Methylphenidate 40 mg/d, Valproate 100 mg/d, Phenytoin 50 mg/d
  group outcome of combination therapy: successfully treated
Adults with ADHD; dexamphetamine 20-45 mg/d, Valproate 100-400 mg/d, Phenytoin 12.5-50 mg/d
  group outcome of combination therapy: successfully treated
Adults with ADHD; dexamphetamine 20-75 mg/d with Phenytoin 1-75 mg/d
  group outcome of combination therapy: successfully treated
Adults with ADHD; methylphenidate 15-105 mg/d with Phenytoin 25-50 mg/d
  group outcome of combination therapy: successfully treated
Adults with ADHD; person, ADHD, phenytoin 30 mg added to dexamphetamine
  clinical outcome (case): improvement in ability to read and sustain enjoyable conversation
Adults with ADHD; person, 12.5 mg phenytoin added to sodium valproate 100 mg and dexamphetamine
  clinical outcome (case): Significant improvement in ability to maintain egocentric eye gaze and cognition
Adults with ADHD; person, 50 mg phenytoin added to methylphenidate 120 mg per day
  clinical outcome (case): improved cognition with increased confidence in interpersonal relationships
Adults with ADHD; person, phenytoin 20 mg per day added to sodium valproate and dexamphetamine
  clinical outcome (case): further improvement of the sequencing and organisation of thoughts
Adults with ADHD; person, phenytoin 50 mg later 25 mg added to dexamphetamine and sodium valproate 200 mg
  clinical outcome (case): immediate improvement of stability of affect and clarity of thinking
[6]
  clinical outcome (case): improved self organisation and ability to plan ahead without effort

## CCN(C)C(=O)Oc1cccc([C@H](C)N(C)C)c1 [Rivastigmine]
[1]
  effect in mild cognitive impairment (reports): failed to stop or slow progression to Alzheimer's disease or improve cognitive function

## CC1(C)O[C@@H]2[C@@H](CO[C@@]3(COS(N)(=O)=O)OC(C)(C)O[C@@H]23)O1 [Topiramate, 2,3:4,5-Bis-O-(1-methylethylidene)-beta-D-fructopyranose sulfamate]
[7]; 25 mg topiramate added to 45 mg extended release methylphenidate
  clinical outcome (case): improved organisation, enhanced interpersonal functioning, improved cognition and able to sustain egocentric eye gaze
[5]; in vivo
  target dose for controlling epileptic seizures: 100 to 500 mg/day
[5]
  Minimum Dose/day effective for mood stabilisation or treatment of epileptic symptoms or events: 100 mg
Adults with ADHD; dexamphetamine 30-80 mg/d with Topiramate 12.5-50 mg/d
  group outcome of combination therapy: successfully treated
Adults with ADHD; median 40 mg/d Dexamphetamine, 120 mg/d Sodium Valproate, 25 mg/d Topiramate
  group outcome of combination therapy: successfully treated
Adults with ADHD; methylphenidate 40-55 mg/d with Topiramate 12-37.5 mg/d
  group outcome of combination therapy: successfully treated
Adults with ADHD; person, ADHD, 25 mg topiramate added to dexamphetamine 30 mg
  clinical outcome (case): ability to complete tasks, improvement in cognition
Adults with ADHD; person, 25 mg topiramate added to oros extended release methylphenidate
  clinical outcome (case): improved organisation, cognition, enhanced interpersonal functioning, and ability to sustain egocentric eye gaze
Adults with ADHD; person, topiramate 25 mg added to sodium valproate 300 mg and dexamphetamine 20 mg
  clinical outcome (case): Further improvements in interpersonal professional functioning
[8]
  clinical outcome (case): significant improvement

## C[C@H](N)Cc1ccccc1 [dexamphetamine]
[9]
  stability and functional benefit (case): not noted
[10]
  use alone in treatment of amphetamine and cocaine addiction: unhelpful

## COC(=O)C(c1ccccc1)C1CCCCN1 (stereo not shown) [methylphenidate]
[7]; anorexia nervosa, ADHD, methylphenidate, 45 mg extended release
  clinical outcome (case): inconsistent
[3]; autism, developmental dyspraxia, methylphenidate max 95 mg daily
  clinical outcome (case): Limited improvement with poor compliance
Adults with ADHD; adult female, ADHD, anorexia nervosa bulimic subtype, methylphenidate alone
  clinical outcome (case): reasonable improvement
Adults with ADHD; person 120 kg, ADHD, methylphenidate 120 mg per day alone
  clinical outcome (case): Remain disorganized and inconsistent with taking medication
Adults with ADHD; person, ADHD, methylphenidate 55 mg
  clinical outcome (case): improvement in their symptoms of impaired attention and concentration
Adults with ADHD; person, anorexia nervosa, ADHD, methylphenidate alone
  clinical outcome (case): inconsistent
[11]
  duration of action: 2 to 4 h
[12]
  effect on bulimic symptoms: suppression of bulimic symptoms
